Test results as given in paper PMC12472391, “Borylated Five-Membered Ring Iminosugars: Synthesis, Spectroscopic Analysis, and Biological Evaluation for Glycosidase Inhibition and Anticancer Properties for Application in Boron Neutron Capture Therapy (BNCT)—Part 1” (Pharmaceuticals, 2025).

Experiments:
Assay in all cases: Glycosidase inhibition, Table 6 (Laboratory 1)
Assay type in all cases: biochemical
[1] = molecular target: T1, α,α-trehalase (porcine kidney) (Sus scrofa, UniProt I3LIR5)
T1 construct: purchased Sigma-Aldrich Co
T1 sequence (I3LIR5 24-583): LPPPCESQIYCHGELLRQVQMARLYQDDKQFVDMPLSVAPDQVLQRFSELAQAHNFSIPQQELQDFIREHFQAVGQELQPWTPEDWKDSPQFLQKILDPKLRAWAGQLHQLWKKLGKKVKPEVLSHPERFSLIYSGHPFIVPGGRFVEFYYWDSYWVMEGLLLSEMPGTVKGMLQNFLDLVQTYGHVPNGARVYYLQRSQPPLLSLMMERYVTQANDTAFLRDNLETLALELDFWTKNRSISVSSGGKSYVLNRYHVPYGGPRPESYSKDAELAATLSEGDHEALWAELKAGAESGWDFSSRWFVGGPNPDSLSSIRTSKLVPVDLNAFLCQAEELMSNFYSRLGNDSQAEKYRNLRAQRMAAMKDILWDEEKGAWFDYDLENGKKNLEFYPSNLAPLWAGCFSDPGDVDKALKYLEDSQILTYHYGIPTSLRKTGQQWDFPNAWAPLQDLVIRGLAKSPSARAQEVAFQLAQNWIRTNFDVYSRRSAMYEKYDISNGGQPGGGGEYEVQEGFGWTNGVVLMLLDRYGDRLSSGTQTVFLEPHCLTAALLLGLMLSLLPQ
From the text: (§1) The enzymes α-D-glucosidase (from yeast), β-D-glucosidases (from almond and bovine liver), α-D-galactosidase (from coffee beans), β-D-galactosidase (from bovine liver), α-D-mannosidase (from Jack bean), β-D-mannosidase (from snail), α-L-rhamnosidase (from Penicillium decumbens), α-L-fucosidase (from bovine kidney), trehalase (from porcine kidney), β-D-glucuronidases (from E. coli and bovine liver), amyloglucosidase (from A. niger), para-nitrophenyl glycosides, and various disaccharides were purchased from Sigma-Aldrich Co. (St. Louis, MO, USA).
(§2) Brush border membranes were prepared from the rat small intestine according to the method of Kessler et al., and were assayed at pH 6.8 for rat intestinal maltase using maltose. For rat intestinal maltase, porcine kidney trehalase, and A. niger amyloglucosidase activities, the reaction mixture contained maltose (25 mM) and the appropriate amount of enzyme, and the incubations were performed for 10–30 min at 37 °C. The reaction was stopped by heating at 100 °C for 3 min. After centrifugation (600× g; 10 min), the resulting reaction mixture was added to the Glucose CII-test Wako (Wako Pure Chemical Ind., Osaka, Japan). The absorbance at 505 nm was measured to determine the amount of the released D-glucose. Other glycosidase activities were determined using an appropriate para-nitrophenyl glycoside as substrate at the optimum pH of each enzyme. The reaction mixture contained the substrate (2 mM) and the appropriate amount of enzyme. The reaction was stopped by the addition of Na2CO3 (400 mM). The released para-nitrophenol was measured spectrometrically at 400 nm. All reactions run in methanol.

[2] = molecular target: T2, α-D-galactosidase (from coffee beans) (Coffea arabica, UniProt Q42656)
T2 construct: purchased Sigma-Aldrich Co
From the text: as §1, §2

[3] = test system: β-D-mannosidase (from snail)
From the text: as §1, §2

[4] = molecular target: T3, amyloglucosidase (from A. niger) (Aspergillus niger, UniProt P69328)
T3 construct: purchased Sigma-Aldrich Co
From the text: as §1, §2

[5] = molecular target: T4, α-D-mannosidase (from Jack bean) (Canavalia ensiformis, UniProt C0HJB3)
T4 construct: purchased Sigma-Aldrich Co
T4 sequence (C0HJB3 1-981): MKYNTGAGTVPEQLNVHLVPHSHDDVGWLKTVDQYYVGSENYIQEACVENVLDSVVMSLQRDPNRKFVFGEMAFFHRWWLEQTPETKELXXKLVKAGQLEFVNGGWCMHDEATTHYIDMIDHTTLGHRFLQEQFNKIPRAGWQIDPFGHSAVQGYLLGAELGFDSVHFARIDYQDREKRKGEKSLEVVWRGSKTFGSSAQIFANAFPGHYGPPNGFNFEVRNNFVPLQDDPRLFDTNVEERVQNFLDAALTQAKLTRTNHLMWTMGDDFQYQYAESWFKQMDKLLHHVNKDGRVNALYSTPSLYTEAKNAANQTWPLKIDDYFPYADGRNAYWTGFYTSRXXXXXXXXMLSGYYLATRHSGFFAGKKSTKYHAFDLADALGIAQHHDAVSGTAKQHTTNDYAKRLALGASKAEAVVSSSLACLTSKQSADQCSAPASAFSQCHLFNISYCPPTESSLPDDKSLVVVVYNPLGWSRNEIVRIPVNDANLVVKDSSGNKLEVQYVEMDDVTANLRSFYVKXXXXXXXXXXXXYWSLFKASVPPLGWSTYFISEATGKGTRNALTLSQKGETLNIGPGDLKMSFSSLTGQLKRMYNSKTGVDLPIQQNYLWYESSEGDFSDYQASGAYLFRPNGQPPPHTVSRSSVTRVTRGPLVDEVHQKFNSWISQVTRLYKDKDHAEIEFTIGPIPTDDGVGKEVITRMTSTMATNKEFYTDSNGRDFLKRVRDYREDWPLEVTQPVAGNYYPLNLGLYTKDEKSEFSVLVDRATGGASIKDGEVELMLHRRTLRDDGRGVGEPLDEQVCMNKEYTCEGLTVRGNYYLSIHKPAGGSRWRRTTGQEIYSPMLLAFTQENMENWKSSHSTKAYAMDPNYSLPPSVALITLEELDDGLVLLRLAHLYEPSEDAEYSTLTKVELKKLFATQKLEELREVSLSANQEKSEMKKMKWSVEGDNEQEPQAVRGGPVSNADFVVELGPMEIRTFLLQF
From the text: as §1, §2

[6] = molecular target: T5, α-D-glucosidase (from yeast) (Saccharomyces cerevisiae, UniProt P53341)
T5 construct: purchased Sigma-Aldrich Co
From the text: as §1, §2

[7] = test system: α-L-rhamnosidase (from Penicillium decumbens)
From the text: as §1, §2

[8] = molecular target: T6, α-L-fucosidase (from bovine kidney) (Bos taurus, UniProt Q2KIM0)
T6 construct: purchased Sigma-Aldrich Co
T6 sequence (Q2KIM0 23-468): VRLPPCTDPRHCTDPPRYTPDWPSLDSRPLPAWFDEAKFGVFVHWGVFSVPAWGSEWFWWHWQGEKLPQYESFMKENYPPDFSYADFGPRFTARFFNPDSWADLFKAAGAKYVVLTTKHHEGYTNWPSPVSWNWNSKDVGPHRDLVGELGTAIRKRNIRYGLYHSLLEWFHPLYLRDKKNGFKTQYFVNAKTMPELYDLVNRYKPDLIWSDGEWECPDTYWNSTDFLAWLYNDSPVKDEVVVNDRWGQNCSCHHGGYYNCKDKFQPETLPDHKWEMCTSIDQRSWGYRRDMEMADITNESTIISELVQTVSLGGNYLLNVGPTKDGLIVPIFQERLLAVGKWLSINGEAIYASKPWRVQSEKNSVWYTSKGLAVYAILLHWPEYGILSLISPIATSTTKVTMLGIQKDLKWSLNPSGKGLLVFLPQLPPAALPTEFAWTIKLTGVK
From the text: as §1, §2

T5 sequence (P53341 whole entry): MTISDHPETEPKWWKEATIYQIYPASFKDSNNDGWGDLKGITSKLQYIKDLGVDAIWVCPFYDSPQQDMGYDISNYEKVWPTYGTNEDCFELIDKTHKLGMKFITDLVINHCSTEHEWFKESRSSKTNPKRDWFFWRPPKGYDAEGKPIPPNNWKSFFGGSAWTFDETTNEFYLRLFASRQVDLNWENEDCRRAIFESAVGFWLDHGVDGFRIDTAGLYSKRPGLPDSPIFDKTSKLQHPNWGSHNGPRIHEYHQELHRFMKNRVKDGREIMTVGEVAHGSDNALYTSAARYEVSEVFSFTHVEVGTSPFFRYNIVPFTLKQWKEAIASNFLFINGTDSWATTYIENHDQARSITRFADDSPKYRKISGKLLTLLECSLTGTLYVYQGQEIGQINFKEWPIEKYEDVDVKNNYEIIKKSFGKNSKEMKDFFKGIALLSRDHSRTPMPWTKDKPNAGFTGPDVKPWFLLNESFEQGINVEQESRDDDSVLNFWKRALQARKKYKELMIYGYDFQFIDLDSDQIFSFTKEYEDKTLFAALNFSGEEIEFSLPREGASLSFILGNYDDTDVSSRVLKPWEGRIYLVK
T2 sequence (Q42656 16-378): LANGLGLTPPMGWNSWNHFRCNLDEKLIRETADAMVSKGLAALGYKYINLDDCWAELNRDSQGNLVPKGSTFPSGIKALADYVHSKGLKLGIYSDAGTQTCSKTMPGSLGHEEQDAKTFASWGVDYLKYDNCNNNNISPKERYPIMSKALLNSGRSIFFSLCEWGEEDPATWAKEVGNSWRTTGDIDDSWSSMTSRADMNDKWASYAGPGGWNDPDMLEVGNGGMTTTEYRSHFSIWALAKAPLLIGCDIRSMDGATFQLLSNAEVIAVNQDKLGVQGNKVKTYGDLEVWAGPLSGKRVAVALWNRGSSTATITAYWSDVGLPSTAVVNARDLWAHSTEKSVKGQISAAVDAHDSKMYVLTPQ
T3 sequence (P69328 25-640): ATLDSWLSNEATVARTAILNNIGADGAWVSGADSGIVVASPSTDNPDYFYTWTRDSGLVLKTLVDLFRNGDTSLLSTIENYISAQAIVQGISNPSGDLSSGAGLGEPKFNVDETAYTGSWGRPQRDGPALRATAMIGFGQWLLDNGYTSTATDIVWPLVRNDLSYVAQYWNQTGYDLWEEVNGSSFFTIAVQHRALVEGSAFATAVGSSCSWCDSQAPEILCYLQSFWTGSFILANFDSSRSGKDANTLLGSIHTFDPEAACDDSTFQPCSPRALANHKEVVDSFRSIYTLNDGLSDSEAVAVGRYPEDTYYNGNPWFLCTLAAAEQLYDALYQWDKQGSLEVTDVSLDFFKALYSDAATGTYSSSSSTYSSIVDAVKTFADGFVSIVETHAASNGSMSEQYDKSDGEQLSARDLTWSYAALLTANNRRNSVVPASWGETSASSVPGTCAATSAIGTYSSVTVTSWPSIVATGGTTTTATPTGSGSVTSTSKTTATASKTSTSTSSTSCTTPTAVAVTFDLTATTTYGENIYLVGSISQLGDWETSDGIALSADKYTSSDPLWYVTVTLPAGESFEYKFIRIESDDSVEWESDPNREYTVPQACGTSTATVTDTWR

| Molecule | inhibition at 100 µM [1] | inhibition at 100 µM [2] | β-D-Mannosidase Snail, inhibition % at 100 μM [3] | inhibition at 100 µM [4] | inhibition at 100 µM [5] | inhibition at 100 µM [6] | α-L-Rhamnosidase P. decumbens, inhibition % at 100 μM [7] | inhibition at 1000 µM [1] | inhibition at 1000 µM [8] | inhibition at 1000 µM [2] | β-D-Mannosidase Snail, inhibition % at 1000 μM [3] | inhibition at 1000 µM [4] | inhibition at 1000 µM [5] | inhibition at 1000 µM [6] | α-L-Rhamnosidase P. decumbens, inhibition % at 1000 μM [7] | also measured |
| --- | --- | --- | --- | --- | --- | --- | --- | --- | --- | --- | --- | --- | --- | --- | --- | --- |
| OC[C@H](O)[C@@H]1[C@H](O)[C@H](O)CN1Cc1ccccc1 [Compound 5, N-Benzyl-1,4-dideoxy-1,4-imino-L-gulitol] | 0% | 1.5% | ^c NI ^d (6.9%) | 2.1% | 4.4% | 2.9% | ^c NI ^d (1.5%) |  |  |  |  |  |  |  |  |  |
| CC1(C)O[C@H]2O[C@H]3[C@@H]([C@H]2O1)N(Cc1ccc(B2OC(C)(C)C(C)(C)O2)cc1)C[C@H]3O [para 6, N-(4-Methylphenylboronic acid pinacol ester)-3,6-dideoxy-3,6-imino-1,2-O-isopropylidene-α-D-gulofuranose] | 0% | 1.6% | ^c NI ^d (0%) | 0% | 0% | 3.4% | ^c NI ^d (1.4%) |  |  |  |  |  |  |  |  | inhibition at 100 µM [8]: 0% |
| OB(O)c1ccc(CN2CC(O)C3OC(O)C(O)C32)cc1 [para 7, N-(4-Methylphenylboronic acid)-3,6-dideoxy-3,6-imino-D-gulofuranose] |  |  |  |  |  |  |  | 0% | 0.8% | 0% | ^a NI ^b (4.1%) | 2.7% | 0% | 0% | ^a NI ^b (15.8%) |  |
| OC[C@H](O)[C@@H]1[C@H](O)[C@H](O)CN1Cc1ccc(B(O)O)cc1 [para 8, N-(4-Methylphenylboronic acid)-1,4-dideoxy-1,4-imino-L-gulitol] |  |  |  |  |  |  |  | 0% | 1.7% | 1.4% | ^a NI ^b (6.9%) | 3.6% | 0% | 5.6% | ^a NI ^b (26.3%) |  |
| N[C@@H](Cc1ccc(B(O)O)cc1)C(=O)O [^10B-BPA, reference compound] |  |  | ^c NI ^d (0.3%) |  |  |  | ^c NI ^d (0%) |  |  |  |  |  |  |  |  | α,α-Trehalase Porcine Kidney, inhibition % at 100 μM ([1]; 100 μM): ^c NI ^d (0%); α-L-Fucosidase Bovine Kidney, inhibition % at 100 μM ([8]; 100 μM): ^c NI ^d (0%); α-D-Galactosidase Coffee Beans, inhibition % at 100 μM ([2]; 100 μM): ^c NI ^d (1.2%); Amyloglucosidase A. niger, inhibition % at 100 μM ([4]; 100 μM): ^c NI ^d (0%); α-D-Mannosidase Jack Bean, inhibition % at 100 μM ([5]; 100 μM): ^c NI ^d (0%); α-D-Glucosidase Yeast, inhibition % at 100 μM ([6]; 100 μM): ^c NI ^d (0%) |
| borocaptate sodium [BSH, reference compound] |  |  |  |  |  |  |  |  |  |  | ^a NI ^b (19.2%) |  |  |  | ^a NI ^b (0.2%) | α,α-Trehalase Porcine Kidney, inhibition % at 1000 μM ([1]; 1000 μM): ^a NI ^b (4.2%); α-L-Fucosidase Bovine Kidney, inhibition % at 1000 μM ([8]; 1000 μM): ^a NI ^b (0%); α-D-Galactosidase Coffee Beans, inhibition % at 1000 μM ([2]; 1000 μM): ^a NI ^b (12.3%); Amyloglucosidase A. niger, inhibition % at 1000 μM ([4]; 1000 μM): ^a NI ^b (0%); α-D-Mannosidase Jack Bean, inhibition % at 1000 μM ([5]; 1000 μM): ^a NI ^b (7.9%); α-D-Glucosidase Yeast, inhibition % at 1000 μM ([6]; 1000 μM): ^a NI ^b (6.9%) |
| CC1(C)O[C@H]2O[C@H]3[C@@H]([C@H]2O1)N(Cc1ccccc1)C[C@H]3O [Compound 3, N-Benzyl-3,6-dideoxy-3,6-imino-1,2-O-isopropylidene-α-D-gulofuranose] | 0% | 9.5% | ^c NI ^d (2.7%) | 0% | 0.9% | 4.7% | ^c NI ^d (0.5%) |  |  |  |  |  |  |  |  | inhibition at 100 µM [8]: 0% |
| OC1O[C@@H]2[C@H]([C@H]1O)N(Cc1ccccc1)C[C@H]2O (stereo partly drawn) [Compound 4, N-Benzyl-3,6-dideoxy-3,6-imino-D-gulofuranose] |  |  |  |  |  |  |  | 0% | 0.4% | 1.8% | ^a NI ^b (1.0%) | 0.2% | 7.5% | 0% | ^a NI ^b (0%) |  |
| N[C@@H](Cc1ccc(B(O)O)cc1)C(=O)O [BPA, 4-borono-L-phenylalanine, reference compound] |  |  | ^c NI ^d (2.1%) |  |  | 0% | ^c NI ^d (0%) |  |  |  |  |  |  |  |  |  |
